Measured values as given in patent US5232923A, “Catechol derivatives and pharmaceutical preparations containing same” (Mitsui Toatsu Chemicals, Incorporated, priority 1988, dated 1993).
Read-outs that look alike come from different tables or passages of the source.

Tests used:
[1] = test system: production and secretion of NGF in mouse L-M cells; test: Promoting activity for the production and secretion of NGF in mouse L-M cells (ELISA of medium after 24 h); format: cell-based; conditions: for fold induction at 400 µM / fold induction at 200 µM: Mus musculus, 24 h; for fold induction at 400 µM / NGF L-M Cell Concentration: Table 5, 0.4 mM; for fold induction at 400 µM: read-out: NGF L-M Cell Increase Ratio; for NGF L-M Cell Concentration / NGF Concentration: 24 hours; for NGF L-M Cell Concentration: control 0.87; for fold induction at 200 µM: read-out: NGF Increase Ratio; for NGF Concentration: mean of four determinations
Experimental: Promoting activity for the production and secretion of NGF in mouse L-M cells
The medium was cultured for 3 days at a temperature of 37° C. […] The sample of the derivative tested is contained in the medium at a prescribed concentration as illustrated in the Tables. […] Data are expressed as fold increase in NGF content of the medium over that cultivated in the absence of the derivative to be tested. […] Data are presented as the mean of four determinations. The results are illustrated in Tables 1-5.

[2] = test system: production and secretion of NGF in mouse brain astroglial cells; test: Promoting activity for the production and secretion of NGF in mouse brain astroglial cells (ELISA of medium after 24 h); format: cell-based; conditions: for fold induction at 400 µM / fold induction at 200 µM: Mus musculus, 24 h; for NGF Astroglial Cell Concentration / NGF Concentration: 24 hours; for NGF Astroglial Cell Concentration: control 31.8
Experimental: Promoting activity for the production and secretion of NGF in mouse brain astroglial cells
The experiment was performed by inducing astroglial cells from the mouse forebrain to a culture system according to the procedures of S. Furukawa et al. which is described in Biochem. Biophys. Res. Commun., 136, 57-63 (1986).
Forebrains of 8-days old mice were dissected out and cut into small pieces. The pieces were washed with calcium- and magnesium-free phosphate-bufferedsaline (hereinafter abbreviated as PBS), treated with 0.25% trypsin containing PBS at 37° C. for 30 minutes and triturated with a Pasteur pipet to give a suspension. Cells and cell clumps were recovered by centrifugation at 200 xg for 5 minutes. They were cultured in Dulbecco modified Eagle's medium (a product of Gibco Co. hereinafter abbreviated as DMEM) containing 10% fetal calf serum, 50 μ units/ml of penicillin, and 50 μg/ml of streptomycin, for 10 to 14 days with medium changes every 3 days. After completing confluency, the cells were dissociated by trypsin treatment and recultured in new culture flasks. This procedure was repeated further twice and more. The culture became a uniform cell cluster. The cell cluster for use in this invention can be stained not less than 97% in accordance with the PAP staining method (peroxidase/[…] staining method) using anti-human glial fibrillar acidic protein (GFAP) rabbit antiserum. The cells will hereinafter be referred to as astroglial cells.
Astroglial cells were innoculated in 24-well plates having a well surface area of 2.1 cm^2 (a product of Falcon Co.) at a cell density of about 3×10^4 cells/well and cultured for 3 days in DMEM medium supplemented with 10% of fetal calf serum. After completing confluency about ([…]), the medium was changed to DMEM medium (0.5 ml/well) supplemented with 0.5% of bovine serum albumin (fraction V) and cultured for 3 days. The culture was further continued with medium changes every 3 days. After cells were practically synchronized in the quiscent stage, the medium was changed to 0.5 ml of the same medium and containing a prescribed concentration of test sample as illustrated in the Tables. NGF in the medium after cultivating for 24 hours was determined by the ELISA as mentioned above. Data are expressed as fold increase in NGF content over that in the absence of the test sample. The lower detection limit of the ELISA is 0.25 pg/ml and the NGF content of control medium was normally 1-10 pg/0.5 ml/well. Data are presented as the mean of four determinations. The results are illustrated in Tables 1-5.

[3] = L-M cells, fold increase over control (1.00)
[4] = Table 5, 0.4 mM, fold increase over control (1.00), read-out: NGF Astroglial Cell Increase Ratio
[5] = Table 1, L-M cells, sample concentration 0.2 mM, control 0.33
[6] = Table 3, sample concentration 0.4 mM, fold increase over control (1.00), read-out: NGF Increase Ratio
[7] = Table 3, sample concentration 0.4 mM, control 42.3
[8] = Table 2, L-M cells, sample concentration 0.2 mM, fold increase over control (1.00)
[9] = Table 2, L-M cells, sample concentration 0.2 mM, control 0.34
[10] = Table 4, sample concentration 0.4 mM, fold increase over control, read-out: NGF Increase Ratio
[11] = Table 4, sample concentration 0.4 mM
[12] = Table 4, sample concentration 0.2 mM, fold increase over control, read-out: NGF Increase Ratio
[13] = Table 4, sample concentration 0.2 mM
[14] = Table 1, L-M cells, sample concentration 0.2 mM, fold increase over control (1.00)

SMILES | fold induction at 400 µM [1, 3] | NGF L-M Cell Concentration ([1]; L-M cells) | fold induction at 400 µM [2, 4] | NGF Astroglial Cell Concentration ([2]; Table 5, 0.4 mM) | fold induction at 200 µM [1, 8] | NGF Concentration [1, 9] | further results
O=C(CCc1ccc(O)c(O)c1)N1CCN(C(c2ccccc2)c2ccccc2)CC1 [Compound 102, N-Diphenylmethyl-N'-[3-(3,4-dihydroxyphenyl)propionyl]piperazine] | 5.1 | 4.44 ng/well | 10.1 | 321.2 ng/well | – | – | –
CCCCNCCc1ccc(O)c(O)c1 [Compound 21] | – | – | – | – | – | – | fold induction at 200 µM [1]: 11.5; NGF Concentration [1, 5]: 3.80 ng/well; fold induction at 400 µM [2, 6]: 4.91; NGF Concentration [2, 7]: 207.5 ng/well
CCCCCCCCCCCCNC(=O)CCc1ccc(O)c(O)c1 [Compound 89, N-Lauryl-3,4-dihydroxyphenylpropionamide] | 4.3 | 3.74 ng/well | 5 | 81.5 ng/well | – | – | –
CCCCCCN(CCCCCC)C(=O)CCc1ccc(O)c(O)c1 [Compound 92, N,N-Di-n-hexyl-3,4-dihydroxyphenylpropionamide] | 5 | 4.35 ng/well | 8.8 | 143.4 ng/well | – | – | –
CC(=O)Oc1ccc(CCC(N)=O)cc1OC(C)=O [Compound 73] | – | – | – | – | 5.68 | 2.01 ng/well | fold induction at 400 µM [2, 10]: 7.65; NGF Concentration [2, 11]: 330.6 ng/well
CCNC(=O)Cc1ccc(OC(C)=O)c(OC(C)=O)c1 [Compound 76] | – | – | – | – | 5.47 | 1.88 ng/well | fold induction at 400 µM [2, 10]: 4.84; NGF Concentration [2, 11]: 209.1 ng/well
CCNC(=O)CCCc1ccc(O)c(O)c1 [Compound 69] | – | – | – | – | 5.53 | 1.88 ng/well | fold induction at 200 µM [2, 12]: 4.49; NGF Concentration [2, 13]: 194.1 ng/well
O=C(CCc1ccc(O)c(O)c1)N1CCCC1 [Compound 98, N-[3-(3,4-Dihydroxyphenyl)propionyl]pyrrolidine] | 6.1 | 5.31 ng/well | 12.8 | 407.0 ng/well | – | – | –
CN(C)C(=O)CCc1ccc(O)c(O)c1 [Compound 72] | – | – | – | – | 5.91 | 1.94 ng/well | fold induction at 200 µM [2, 12]: 6.5; NGF Concentration [2, 13]: 280.6 ng/well
O=C(CCc1ccc(O)c(O)c1)NC1CCCCC1 [Compound 93, N-Cyclohexyl-3,4-dihydroxyphenylpropionamide] | 6 | 5.22 ng/well | 9.9 | 161.4 ng/well | – | – | –
CC(=O)N(C)CCc1ccc(O)c(O)c1 [Compound 10] | – | – | – | – | – | – | fold induction at 200 µM [1, 14]: 9.7; NGF Concentration [1, 5]: 3.20 ng/well; fold induction at 400 µM [2, 6]: 4.85; NGF Concentration [2, 7]: 205.2 ng/well
CNCCCc1ccc(O)c(O)c1 [Compound 26] | – | – | – | – | – | – | fold induction at 200 µM [1, 14]: 8.61; NGF Concentration [1, 5]: 2.84 ng/well; fold induction at 400 µM [2, 6]: 4.17; NGF Concentration [2, 7]: 176.5 ng/well
CCNC(=O)CCCc1ccc(OC(C)=O)c(OC(C)=O)c1 [Compound 79] | – | – | – | – | 5.35 | 1.82 ng/well | fold induction at 400 µM [2, 10]: 4.57; NGF Concentration [2, 11]: 197.3 ng/well
CCNC(=O)CCc1ccc(OC(C)=O)c(OC(C)=O)c1 [Compound 74] | – | – | – | – | 5.85 | 1.93 ng/well | fold induction at 400 µM [2, 10]: 6.53; NGF Concentration [2, 11]: 282.2 ng/well
CCCCOC(=O)CCc1ccc(O)c(O)c1 [Compound 37] | – | – | – | – | 5.44 | 1.85 ng/well | fold induction at 200 µM [2, 12]: 4.83; NGF Concentration [2, 13]: 208.5 ng/well
CCOC(=O)CCc1ccc(O)c(O)c1 [Compound 35] | – | – | – | – | 5.82 | 1.98 ng/well | fold induction at 200 µM [2, 12]: 4.63; NGF Concentration [2, 13]: 200.1 ng/well
CC(=O)NCCc1ccc(OC(C)=O)c(OC(C)=O)c1 [Compound 13, N-Acetyl-3,4-diacetoxyphenethylamine] | – | – | – | – | – | – | fold induction at 200 µM [1, 14]: 12.2; NGF Concentration [1, 5]: 4.03 ng/well; fold induction at 400 µM [2, 6]: 4.7; NGF Concentration [2, 7]: 198.8 ng/well
CCCC(=O)NCCc1ccc(O)c(O)c1 [Compound 3] | – | – | – | – | – | – | fold induction at 200 µM [1, 14]: 9.64; NGF Concentration [1, 5]: 3.18 ng/well; fold induction at 200 µM ([2]; Table 3, sample concentration 0.2 mM, fold increase over control (1.00), read-out: NGF Increase Ratio): 3.66; NGF Concentration ([2]; Table 3, sample concentration 0.2 mM, control 42.3): 155.0 ng/well
CCCCCCNC(=O)CCc1ccc(O)c(O)c1 [Compound 87, N-n-Hexyl-3,4-dihydroxyphenylpropionamide] | 5.8 | 5.05 ng/well | 12 | 195.6 ng/well | – | – | –
CCCCNC(=O)CCc1ccc(OC(C)=O)c(OC(C)=O)c1 [Compound 85, N-n-Butyl-3,4-diacetoxyphenylpropionamide] | 6.8 | 5.92 ng/well | 33.6 | 547.7 ng/well | – | – | –
Br.CCNCCc1ccc(O)c(O)c1 [Compound 19, N-Ethyl-3,4-dihydroxyphenethylamine hydrobromide] | – | – | – | – | – | – | fold induction at 200 µM [1]: 10.6; NGF Concentration [1, 5]: 3.50 ng/well; fold induction at 400 µM [2, 6]: 4.17; NGF Concentration [2, 7]: 176.3 ng/well
O=C(CCc1ccc(O)c(O)c1)Nc1ccccc1 [Compound 95, N-Phenyl-3,4-dihydroxyphenylpropionamide] | 5.9 | 5.13 ng/well | 11.2 | 182.6 ng/well | – | – | –
CCCCN(C)C(=O)CCc1ccc(O)c(O)c1 [Compound 90, N-n-Butyl-N-methyl-3,4-dihydroxyphenylpropionamide] | 6.4 | 5.57 ng/well | 30 | 489.0 ng/well | – | – | –
O=C(CCc1ccc(O)c(O)c1)N1CCN(Cc2ccccc2)CC1 [Compound 101, N-Benzyl-N'-[3-(3,4-dihydroxyphenyl)propionyl]piperazine] | 5.2 | 4.52 ng/well | 9.6 | 305.3 ng/well | – | – | –
CCOC(=O)CCc1ccc(OC(C)=O)c(OC(C)=O)c1 [Compound 47, Ethyl 3,4-diacetoxyphenylpropionate] | – | – | – | – | 6.29 | 2.14 ng/well | fold induction at 400 µM [2, 10]: 5.11; NGF Concentration [2, 11]: 220.8 ng/well
